# Experimental data reported in patent publication US20120196933A1, “MEXILETINE PRODRUGS” (priority 2010, published 2012).
# Values joined by “and” are separate entries in the source; they are usually repeats but may differ in a detail not shown here. Identical values can stand only once. Like-named read-outs stand apart in the source and are kept apart here. Marks after values point to notes of the source that are not given here.
# Tests used:
# [1] = test system: rabbit stomach smooth muscle; test: Electrical field stimulated contractions of isolated rabbit stomach smooth muscle; type: cell-based; settings: read-out: ED50 for attenuation of EFS induced contractions
# ADR mouse = test: Anti-myotonic effects in the ADR mouse (righting response); type: in vivo; settings: oral 5 mg/kg
# Protocol: The effects of oral administration of either mexiletine glutamic acid amide at 5, 10 or 20 mg/kg or mexiletine 5 mg/kg on the righting response of a group of three adr/adr mice were examined on three separate days. Each assessment involved placing the individual mice on their back no fewer than seven successive occasions in rapid succession and determining the time to successful righting at various time pre and post dosing (−10, +15, +30, +60, +120 & +180 mins).
# [2] = test system: 9-AC induced myotonia in the rat; test: Anti-myotonic effects in 9-anthracene carboxylic acid (9-AC) treated rats (righting time); type: in vivo; settings: for Mean ± SEM righting response time: 9-AC 30 mg/kg ip
# Protocol: The use of ip injection of 9-anthracene carboxylic acid is known to induce a myotonic state in rats which can then be used to assess the activity of potential anti-myotonic compounds (Villegas-NavarroA et al (1992) Exp. Toxicol. Pathol. 44 34-39).
# Groups of four rats were predosed with 30 mg/kg 9-AC (time 0) and ten minutes later their righting time was assessed repeatedly seven times in rapid succession. They were then dosed po with mexiletine or mexiletine glutamic acid amide at 1, 5, 10, 20 or 40 mg/kg and the righting time reassessed at ˜30, 60, 120 and 180 minutes after 9-AC injection. At each dose level, a group of four control animals, given vehicle alone, was used
# [3] = test system: patients with myotonic disorders; settings: 1200 mg daily tocamide or 600 mg daily mexiletine, three divided doses; cited from earlier work
# [4] = test system: patients with myotonic dystrophy (type 1); settings: 150 tid or 200 mg tid, 7 weeks; cited from earlier work
# patients = settings: cited from earlier work
# [5] = In vitro stability of mexiletine prodrugs under conditions prevailing in the gut; type: physicochemical; settings: HPLC; for Simulated gastric fluid (pH 1.1): % remaining after 2 h/37° C.: simulated gastric fluid pH 1.1, 2 h; for Simulated intestinal fluid (pH 6.8): % remaining after 2 h/37° C.: simulated intestinal fluid pH 6.8, 2 h
# Protocol: To investigate if the prodrugs of the present invention are stable in conditions mimicking the gut, various mexiletine amino acid prodrugs were incubated at 37° C. in simulated gastric and simulated intestinal juice (USP defined composition) for 2 hours. The remaining concentrations of the prodrug were then assayed by HPLC.
# [6] = Systemic availability of mexiletine in the dog from mexiletine prodrugs (oral gavage); type: in vivo; settings: 1 mg/kg mexiletine free base
# Protocol: Test substances (i.e., mexiletine, and various mexiletine amino acid prodrugs) were administered by oral gavage to groups of two or some cases five dogs. The characteristics of the test animals are set out in Table 6.
# Blood samples were taken at various times after administration and submitted to analysis for parent drug using a validated LC-MS-MS assay. Pharmacokinetic parameters derived from the plasma bioanalytical data were determined using Win Nonlin.
# [7] = Systemic availability of mexiletine in the cynomolgus monkey from mexiletine prodrugs (oral gavage); type: in vivo; settings: 1 mg/kg mexiletine free base, plasma mexiletine
# Protocol: Test substances (i.e., mexiletine, and various mexiletine amino acid prodrugs) were administered by oral gavage to groups of two and, in one case, five male cynomolgus monkeys. Blood samples were taken at various times after administration and submitted to analysis for the parent drug using a validated LC-MS-MS assay. Pharmacokinetic parameters derived from the plasma bioanalytical data were determined using Win Nonlin.
# ferret = test: Emetic effects following oral administration to the ferret; type: in vivo; settings: oral 20 mg/kg mexiletine HCl or molar equivalent, individual animals
# Source text: Male ferrets (n=7) were allowed free access to pelleted diet until late afternoon on the day prior to the day of each test. The food was then removed and the ferrets were starved overnight. Food was not returned until after completion of the emetic observation.
# [8] = In vitro stability of mexiletine prodrugs under conditions prevailing in the gut; type: physicochemical; settings: 0.1M phosphate buffer pH 7.4, 2 h
# sodium channel = settings: relative to mexiletine; cited from earlier work
# [9] = listed as Mexiletine lysine amide
structure (smiles),measurement,setting,value
"Cc1cccc(C)c1OCC(C)N.Cl (racemic) [Mexiletine hydrochloride, (rac)-1-(2,6-dimethylphenoxy)-2-propanamine hydrochloride]",EC50,[1]; Oryctolagus cuniculus,2.17 µM
same,Effects on righting time,ADR mouse,marginal
same,Mean ± SEM righting response time,ADR mouse; +15 mins,7.80 ± 3.72 s
same,Mean ± SEM righting response time,ADR mouse; +30 mins,9.53 ± 5.07 s
same,Mean ± SEM righting response time,ADR mouse; +60 mins,10.5 ± 3.68 s
same,Mean ± SEM righting response time,ADR mouse; +120 mins,12.5 ± 4.98 s
same,Mean ± SEM righting response time,ADR mouse; +180 mins,12.5 ± 4.27 s
same,Mean ± SEM righting response time,ADR mouse; −10 mins (pre dosing),7.94 ± 1.25 s
same,Coefficient of variation of the response,"[2]; 10 mg/kg (same molar dose level), time of maximal effect of 9-AC (+30 mins)",96%
same,Mean ± SEM righting response time,"[2]; drug 1 mg/kg po, 9-AC +10 mins (predrug)",1.96 ± 0.193 s
same,Mean ± SEM righting response time,"[2]; drug 1 mg/kg po, 9-AC +30 mins",2.94 ± 0.490 s
same,Mean ± SEM righting response time,"[2]; drug 1 mg/kg po, 9-AC +60 mins",1.73 ± 0.165 s
same,Mean ± SEM righting response time,"[2]; drug 1 mg/kg po, 9-AC +120 mins",1.17 ± 0.124 s
same,Mean ± SEM righting response time,"[2]; drug 1 mg/kg po, 9-AC +180 mins",0.831 ± 0.169 s
same,Mean ± SEM righting response time,"[2]; drug 5 mg/kg po, 9-AC +10 mins (predrug)",2.36 ± 0.208 s
same,Mean ± SEM righting response time,"[2]; drug 5 mg/kg po, 9-AC +30 mins",2.21 ± 0.153 s
same,Mean ± SEM righting response time,"[2]; drug 5 mg/kg po, 9-AC +60 mins",2.34 ± 0.386 s
same,Mean ± SEM righting response time,"[2]; drug 5 mg/kg po, 9-AC +120 mins",1.33 ± 0.194 s
same,Mean ± SEM righting response time,"[2]; drug 5 mg/kg po, 9-AC +180 mins",0.980 ± 0.220 s
same,Mean ± SEM righting response time,"[2]; drug 10 mg/kg po, 9-AC +10 mins (predrug)",2.26 ± 0.195 s
same,Mean ± SEM righting response time,"[2]; drug 10 mg/kg po, 9-AC +30 mins",3.28 ± 1.58 s
same,Mean ± SEM righting response time,"[2]; drug 10 mg/kg po, 9-AC +60 mins",2.28 ± 0.347 s
same,Mean ± SEM righting response time,"[2]; drug 10 mg/kg po, 9-AC +120 mins",1.41 ± 0.190 s
same,Mean ± SEM righting response time,"[2]; drug 20 mg/kg po, 9-AC +10 mins (predrug)",2.27 ± 0.260 s
same,Mean ± SEM righting response time,"[2]; drug 20 mg/kg po, 9-AC +60 mins",1.43 ± 0.294 s
same,Mean ± SEM righting response time,"[2]; drug 20 mg/kg po, 9-AC +120 mins",0.949 ± 0.131 s
same,Mean ± SEM righting response time,"[2]; drug 40 mg/kg po, 9-AC +10 mins (predrug)",2.61 ± 0.088 s
same,Mean ± SEM righting response time,"[2]; drug 40 mg/kg po, 9-AC +60 mins",0.913 ± 0.0507 s
same,Mean ± SEM righting response time,"[2]; drug 40 mg/kg po, 9-AC +120 mins",0.746 ± 0.0699 s
same,Mean ± SEM righting response time,"[2]; drug 40 mg/kg po, 9-AC +180 mins",0.583 ± 0.0606 s
same,Increase in the speed of stair step movement,[3],2.8 fold
same,Reduction in the time taken for eye opening,[3],6 fold
same,Reduction of hand opening time,[3],6.9 fold
same,Reduction in grip relaxation time,[4],2 fold
"CNCC[C@H](Oc1cccc2ccccc12)c1cccs1 [Duloxetine, duloxetine]",Treated patients with nausea,patients; treated patients,20-40%
"Cc1cccc(C)c1OCC(C)NC(=O)CN.O=C(O)C(F)(F)F (racemic) [Mexiletine glycine amide, Glycine-(rac)-mexiletine Trifluoroacetate]",Simulated gastric fluid (pH 1.1): % remaining after 2 h/37° C.,[5],99.8%
same,Simulated intestinal fluid (pH 6.8): % remaining after 2 h/37° C.,[5],99.8%
same,T50% Cmax,[6]; plasma mexiletine,5.5** h
same,T50% Cmax,[7],3.71** h
same,EC50,"[1]; Oryctolagus cuniculus, rabbit stomach antrum strips, EFS 14 Hz",9.16 µM
same,Total number of individual incidences of retching,ferret; 2 h observation,20 (2×) and 2 (2×) and 12 and 0 and 10
same,Total number of individual incidences of vomiting,ferret; 2 h observation,5 and 1 (2×) and 2 and 0 (2×) and 3
same,Time to onset of retching,ferret,15 min (2×) and 13 min (2×) and 11 min and >120 min and 10 min
same,Time to onset of vomiting,ferret,17 min and 13 min (2×) and 11 min and >120 min (2×) and 15 min
same,"pH 7.4, 37° C. 0.1M phosphate buffer: % remaining after 2 h/37° C.",[8],99.9%
"Cc1cccc(C)c1OCC(C)NC(=O)[C@@H](N)CCCCN.O=C(O)C(F)(F)F.O=C(O)C(F)(F)F (mixture of isomers) [Mexiletine (S)-lysine amide, (Rac)-Mexiletine-(S)-Lysine Ditrifluoroacetate]",Simulated gastric fluid (pH 1.1): % remaining after 2 h/37° C.,[5]; [9],99.8% and 100%
same,Simulated intestinal fluid (pH 6.8): % remaining after 2 h/37° C.,[5]; [9],80.8% and 100%
same,AUC of mexiletine,[6]; plasma mexiletine,301** ng · h/mL
same,Cmax of mexiletine,[6]; plasma mexiletine,54.4** ng/mL
same,T50% Cmax,[6]; plasma mexiletine,5.0** h
same,F(rel),[6]; relative to mexiletine,28.0** %
same,EC50,"[1]; rabbit stomach antrum strips, EFS 14 Hz",21.8 µM
same,"pH 7.4, 37° C. 0.1M phosphate buffer: % remaining after 2 h/37° C.",[8],100%
CC(C)C[C@H](CN)CC(=O)O [pregabalin],Patients with dizziness and somnolence,patients; patients treated at the higher doses,up to 30%
Cc1cc(O)cc(C)c1OCC(C)N (stereo not shown) [Para-hydroxymexiletine],Sodium channel inhibitory activity retained relative to the parent molecule,sodium channel,around 25%
